Literature values, collected in patent US8951536B2, “N-hydroxyamidinoheterocycles as modulators of indoleamine 2,3-dioxygenase” (Incyte Corporation, priority 2005, dated 2015).

Assays:
[1] = system: HeLa cells co-cultured with peripheral blood lymphocytes (PBLs); details: Logan et al. 2002
[2] = system: pregnant mice (carrying syngeneic or allogeneic fetuses); details: pregnant mice exposed to 1MT; Munn et al. 1998
[3] = system: CD123-positive dendritic cells; details: mature and immature CD123-positive dendritic cells; Munn et al. 2002
[4] = system: tumor growth in mice; details: Muller et al. 2005
[5] = system: LLC tumors; details: LLC tumors in C57Bl/6 mice, versus placebo; Friberg et al.
[6] = system: P815 tumor; details: pre-immunized immune-competent mice; Uyttenhove et al.

| SMILES | reduction in PBL proliferation upon treatment with IL2 [1] | rejection of allogeneic concepti [2] | IDO suppressive activity on T-cell activity [3] | tumor growth with chemotherapeutic agents [4] | formation of tumors [5] | growth of tumors [6] |
| --- | --- | --- | --- | --- | --- | --- |
| Cn1cc(C[C@H](N)C(=O)O)c2ccccc21 [1-methyl-tryptophan] | reversed | rapid, T cell-induced rejection of all allogeneic concept | blocked |  |  |  |
| Cn1cc(CC(N)C(=O)O)c2ccccc21 (stereo not drawn) [Example 1-MT] |  |  |  | can synergize with chemotherapeutic agents to reduce tumor growth in mice | markedly delayed | inhibited |
